Key:
[1] = tested on: Saos-2 cells; experiment: MTT assay of cell viability after 24 h treatment in normoxic or hypoxic conditions; assay type: cell-based, human; details: FIG. 1A
Protocol: The leaves were washed with distilled water and left to air-dry at room temperature or in an oven at 40° C. until a constant weight was obtained. Dried leaves were then blended into a powder form, soaked and extracted in methanol at a 1:3 ratio (w/v) for three days at room temperature. Extracts were filtered by Whatman No. 1 filter paper with the aid of a vacuum pump. The residues were re-extracted twice using the same methanolic method. Filtrates were then concentrated by rotary evaporator at a maximum of 40° C. Concentrated extracts were collected in glass vials with push-in caps and dried in an oven at 40° C. until a constant weight was obtained. All of the crude extracts were stored −80° C. […] These concentrations were determined empirically and selected to cover a range of effects, ranging from no effect to significant cytotoxicity. […] After a further 4 h of incubation in 5% CO2 at 37° C., formazan precipitates that formed were dissolved with 100 μl of DMSO and the reaction was read in a microplate reader (Model 550, BioRad, Hercules, Calif.) at 570 nm absorbance and 630 nm as the reference wavelength.

[2] = tested on: HIF; experiment: HIF reporter assay (hypoxia-driven firefly luciferase reporter); assay type: cell-based, human; details: cisplatin 0.1 mM; hypoxic HRE-luc Saos2 cells
Protocol: A human osteosarcoma cell line, Saos-2 stably expressing four copies of the erythropoietin hypoxia response elements (HRE-luc Saos2; […] et al., Malaysian Patent Application #: PI 2012003492), was cultured in DMEM medium (PAA, USA) supplemented with 10% (v/v) fetal bovine serum (FBS; PAA, USA) and 1% (v/v) antibiotic-antimycotic (PAA, USA) in a humidified incubator supplied with ambient oxygen and 5% CO2 at 37° C. An hypoxic gaseous environment was created by incubating cells in a ProOx in vitro chamber (BioSpherix), controlled by ProOx model 110 (BioSpherix). The cells were supplied 0.5% O2, 94.5% N2 and 5% CO2 at 37° C. Cells were co-transfected with a hypoxia-driven firefly luciferase reporter plasmid construct containing four copies of the erythropoietin (EPO) hypoxia response elements (HRE) and a pRL-CMV expressing Renilla luciferase as described previously (Kaluz et al., 2008, […] et al., 2009, […] et al. Malaysian Patent Application No. PI 2012003492). Transfected cells were treated with appropriate concentrations of plant extracts and incubated in either normoxic or hypoxic conditions. After 24 h, firefly and Renilla luciferase signal intensities were measured (Kaluz et al., 2008, […] et al, 2009). Percent HIF inhibition was calculated as a ratio of the difference between untreated and plant extract-treated sample to the untreated sample. […]

SMILES	IC50 in hypoxia compared with normoxia, in words [1]	percent HIF inhibition [2]
CN1C(=O)[C@]2(Cc3cn([C@]45C[C@@]67SS[C@@](CO)(C(=O)N6[C@H]4Nc4ccccc45)N(C)C7=O)c4ccccc34)SS[C@@]1(CO)C(=O)N2C [chetomin]	increased in hypoxia	–
N.N.[Cl][Pt][Cl] [cisplatin]	significantly higher than in normoxia	around 60%

From US10004775B2, “Inhibition of hypoxia-inducible factor activity with carica papaya extracts” (The Regents of the University of California, priority 2013, dated 2018)
